Measurements taken from patent US20210069295A1, “GALECTINS CONTROL MTOR IN RESPONSE TO ENDOMEMBRANE DAMAGE AND PROVIDE A MECHANISM AND TARGET FOR THE TREATMENT OF AUTOPHAGY-RELATED DISEASES” (STC. UNM, priority 2017, published 2021).

Tests used:
Format in all cases: binding
[1] = test system: LAMTOR1/p18 and Rag GTPases; assay: GST-pulldown assay with in vitro translated proteins; details: 35S-methionine labeled
Description: (D) Immunoprecipitation analysis of interactions between Gal8 and Ragulator components p14, p18 and MP1. HEK293T cells overexpressing FLAG-tagged Gal8 were immunoprecipitated/collected with anti-FLAG (beads). Cell lysates and collected immune complexes were blotted for endogenous p18, p14, and MP1. (E)(i-ii) GST pulldown assay with in vitro translated Myc-tagged Gal8 or Gal9 and GST-tagged p18. GST-tagged p18 immobilized on Gluthatione sepharose beads were incubated with in vitro translated Myc-tagged Gal8 or Gal9 radiolabeled with 35S-methionine. Interactions were assessed by autoradiography. Data (% binding), means±SEM, n=3, † p≥0.05, **p<0.01, ANOVA. (F)(i-iv) GST pulldown assay with in vitro translated Myc-tagged Rag proteins and GST-tagged Gal8. […] Interactions were assessed by autoradiography. […]
GST and GST-tagged proteins were produced in SoluBL21 Competent E. coli (Genlantis, C700200) and purified by binding to Glutathionine Sepharose 4 Fast Flow beads (GE Healthcare, 17-5132-01) while myc-tagged proteins were in vitro translated using the TNT T7 Reticulocyte Lysate System (Promega, 14610) in the presence of ^35S-methionine. […] Radioactive signals were detected by Fujifilm bioimaging analyzer BAS-5000 and quantified with ScienceLab ImageGuage software (Fujifilm).

AMPKα = assay: Co-IP of FLAG-tagged galectins with endogenous AMPKα in HEK293T cells; details: HEK293T overexpressing FLAG-tagged galectins
TAK1 = molecular target: T1, TAK1 (Homo sapiens, UniProt O43318); assay: Co-IP of FLAG-tagged galectins with GFP-tagged TAK1 in HEK293T cells; details: HEK293T overexpressing FLAG-tagged galectins and GFP-TAK1
T1 sequence (O43318 1-606): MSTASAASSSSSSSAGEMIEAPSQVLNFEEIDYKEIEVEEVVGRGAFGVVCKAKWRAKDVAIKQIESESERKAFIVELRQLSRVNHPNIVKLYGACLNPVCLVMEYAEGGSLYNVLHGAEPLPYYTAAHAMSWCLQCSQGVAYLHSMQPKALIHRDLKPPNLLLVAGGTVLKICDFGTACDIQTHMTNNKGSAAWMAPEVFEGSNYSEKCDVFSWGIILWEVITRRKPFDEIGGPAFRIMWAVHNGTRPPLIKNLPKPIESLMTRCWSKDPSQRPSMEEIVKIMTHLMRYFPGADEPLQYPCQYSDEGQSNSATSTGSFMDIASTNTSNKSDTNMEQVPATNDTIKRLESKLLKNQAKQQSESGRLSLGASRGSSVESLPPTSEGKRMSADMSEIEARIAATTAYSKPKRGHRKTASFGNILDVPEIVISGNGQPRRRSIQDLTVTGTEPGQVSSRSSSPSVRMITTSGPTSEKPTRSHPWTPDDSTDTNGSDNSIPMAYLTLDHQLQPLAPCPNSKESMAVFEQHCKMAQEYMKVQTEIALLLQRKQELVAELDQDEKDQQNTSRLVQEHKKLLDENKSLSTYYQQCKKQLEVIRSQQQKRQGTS
Description: (A) Analysis of the activation of AMPK in wildtype (WT) and the complementation of Gal9 in Gal9-knockout (Gal9KO) HEK293A cells treated with 100 μM GPN in full medium for 1 h. AMPK activity was monitored by immunoblotting analysis of AMPKα (T172) and acetyl-CoA carboxylase (ACC, S79) phosphorylation (phosphorylated AMPKα (T172) and ACC (S79) relative to total AMPKα and ACC respectively). (B) HEK293T cells transfected with scrambled siRNA (Scr) or Gal9 siRNA (Gal9KD) were treated with 2 mM LLOMe in full medium for 1 h, and the cell lysates were analyzed for phosphorylation of indicated proteins. Data, means±SEM, n=3, *p<0.05, ANOVA. (C) HEK293T cells overexpressing FLAG-Gal9 were treated with 2 mM LLOMe in full medium for 1 h. Cell lysates were analyzed for the indicated proteins. Data, means±SEM, n=3, *p<0.05, ANOVA. (D) Immunoprecipitation analysis of the interactions between galectins and TAK1. HEK293T cells overexpressing FLAG-tagged galectins and GFP-tagged TAK1 were subjected to anti-FLAG immunoprecipitation followed by immunoblotting for GFP-tagged TAK1. (E) Schematic diagram of Gal9 domains and deletion constructs. (F) HEK293T cells overexpressing FLAG-tagged full-length or truncated Gal9 and GFPAMPK were subjected to anti-FLAG immunoprecipitation, followed by immunoblotting for GFP-AMPK. (G) HEK293T cells overexpressing FLAG-tagged full-length or truncated Gal9 and GFP-TAK1 were subjected to anti-FLAG immunoprecipitation, followed by immunoblotting for GFP-TAK1. (H) Analysis of the activation of AMPK in HEK293T cells subjected to knockdowns as indicated treated with 100 μM GPN in full medium for 1 h. AMPK activity was monitored by immunoblotting analysis of AMPKα (T172) and acetyl-CoA carboxylase (ACC, S79) phosphorylation (phosphorylated AMPKα (T172) and ACC (S79) relative to total AMPKα and ACC respectively). Cells transfected with scrambled siRNA were as control (Scr). […]

Row | Substance | direct binding to Ragulator (LAMTOR1/p18) and Rag GTPases in GST-pulldown [1] | AMPKα in complexes (co-IP) with galectin (AMPKα) | interaction with TAK1 (TAK1)
1 | Gal9: beta-galactoside-binding lectin protein of the galectin family | did not show direct binding | found in co-IPs | interacted
2 | Gal8: protein of the galectin family encoded by the gene LGALS8; beta-galactoside-binding lectin | direct interactions | not detected | not
